pIC50: −log10 of the molar value. Read-outs that look alike come from different tables or passages of the source.
Columns and labels:
VIM-1 = VIM-1 (Pseudomonas aeruginosa (strain ATCC 15692 / DSM 22644 / CIP 104116 / JCM 14847 / LMG 12228 / 1C / PRS 101 / PAO1), UniProt A0A0F7KYQ8); assay: Enzyme activity: determination of IC50, fluorescence assay with CCF2-FA substrate (VIM-1); format: biochemical
[1] = system: Escherichia coli expressing NDM-1 (CLB30016); assay: Antibiotic potentiation activity: synergistic concentration (MITC95) with imipenem, OD600 growth; format: cell-based; conditions: for Escherichia coli MITC95: 95% growth inhibition; for Escherichia coli expressing NDM-1 (CLB 30016) MITC95: concentration giving 95% inhibition of bacterial growth
Procedure, shortened: (§1)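 Overnight colonies (35 °C) were suspended in saline, diluted 1:100 into 1.1× CAMHB, and exposed to test compound with imipenem at 4 μg/ml (optionally 1 μg/ml) in assay. After 22–24 h at 35 °C, growth was read by absorbance.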

[2] = system: Klebsiella pneumoniae expressing VIM-1 (IHMA599644); assay: as above; format: cell-based; conditions: for Klebsiella pneumoniae MITC95: 95% growth inhibition; for Klebsiella pneumoniae expressing VIM-1 (IHMA 599644) MITC95: concentration giving 95% inhibition of bacterial growth
Procedure, shortened: as §1

[3] = system: Serratia marcescens expressing IMP-1 (CL5741); assay: as above; format: cell-based; conditions: for Serratia marcescens MITC95: 95% growth inhibition; for Serratia marcescens expressing IMP-1 (CL5741) MITC95: concentration giving 95% inhibition of bacterial growth
Procedure, shortened: as §1

IMP-1 = IMP-1 (Serratia marcescens, UniProt P52699); assay: biochemical; format: biochemical
Chain of IMP-1 (P52699 whole entry, looked up): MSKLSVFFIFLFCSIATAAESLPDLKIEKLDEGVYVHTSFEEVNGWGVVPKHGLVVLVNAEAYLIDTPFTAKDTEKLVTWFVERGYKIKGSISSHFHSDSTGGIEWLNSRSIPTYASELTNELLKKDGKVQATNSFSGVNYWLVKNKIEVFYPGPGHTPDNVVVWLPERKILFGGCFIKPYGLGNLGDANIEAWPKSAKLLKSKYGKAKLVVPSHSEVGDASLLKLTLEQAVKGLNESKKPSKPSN

NDM-1 = NDM-1 (Klebsiella pneumoniae, UniProt C7C422); assay: biochemical; format: biochemical
Chain of NDM-1 (C7C422 whole entry, looked up, species assumed): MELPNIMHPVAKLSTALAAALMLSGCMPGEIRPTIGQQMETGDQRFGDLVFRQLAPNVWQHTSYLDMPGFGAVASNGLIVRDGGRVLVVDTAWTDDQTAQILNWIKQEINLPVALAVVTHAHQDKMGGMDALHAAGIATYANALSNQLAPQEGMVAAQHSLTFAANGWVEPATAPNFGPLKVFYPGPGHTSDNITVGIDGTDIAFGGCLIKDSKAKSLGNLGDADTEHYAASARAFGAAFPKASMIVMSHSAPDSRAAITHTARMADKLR

[4] = VIM-1 enzyme, CCF2-FA substrate, read-out: VIM-1 IC50
[5] = Klebsiella pneumoniae IHMA599644 (VIM-1)
[6] = Serratia marcescens CL5741 (IMP-1)
[7] = IMP-1 enzyme, CCF2-FA substrate, read-out: IMP-1 IC50
[8] = NDM-1 enzyme, CCF2-FA substrate, read-out: NDM-1 IC50
[9] = VIM-1 enzyme, CCF2-FA fluorescence assay, read-out: VIM-1 IC50
[10] = Escherichia coli expressing NDM-1 (CLB30016)
[11] = Klebsiella pneumoniae expressing VIM-1 (IHMA599644)
[12] = Serratia marcescens expressing IMP-1 (CL5741)
[13] = IMP-1 enzyme, CCF2-FA fluorescence assay, read-out: IMP-1 IC50
[14] = NDM-1 enzyme, CCF2-FA fluorescence assay, read-out: NDM-1 IC50
[15] = VIM-1 IC50, fluorescence assay with CCF2-FA substrate
[16] = fluorescence assay with CCF2-FA substrate, read-out: IMP-1 IC50
[17] = fluorescence assay with CCF2-FA substrate, read-out: NDM-1 IC50
[18] = VIM-1 IC50, VIM-1 enzyme, CCF2-FA substrate

| SMILES | Escherichia coli MITC95 ([1]; (CLB30016, NDM-1)) [µM] | Klebsiella pneumoniae MITC95 [2, 5] [µM] | Serratia marcescens MITC95 [3, 6] [µM] | pIC50 (IMP-1; [7]) | pIC50 (NDM-1; [8]) | pIC50 (VIM-1; [9]) | Escherichia coli MITC95 [1, 10] [µM] | Klebsiella pneumoniae MITC95 [2, 11] [µM] | Serratia marcescens MITC95 [3, 12] [µM] | pIC50 (IMP-1; [13]) | pIC50 (NDM-1; [14]) | further results |
| --- | --- | --- | --- | --- | --- | --- | --- | --- | --- | --- | --- | --- |
| Cc1nc(N)ccc1Cc1cccc(S(N)(=O)=O)c1-c1nn[nH]n1 [Example 572, 3-((6-amino-2-methylpyridin-3-yl)methyl)-2-(2H-tetrazol-5-yl)benzenesulfonamide] | 0.5859 | 6.25 | 25 | 6.15 | 7.83 |  |  |  |  |  |  | pIC50 (VIM-1; [4]): 8.05 |
| CN(C)[C@@H]1CCN(Cc2ccc(-c3cccc(S(N)(=O)=O)c3-c3nnn[nH]3)cc2)C1 [Example 347, 4′-{[(3R)-3-(dimethylamino)pyrrolidin-1-yl]methyl}-2-(1H-tetrazol-5-yl)biphenyl-3-sulfonamide] |  |  |  |  |  | 6.07 | 2.344 | 200 | 3.125 | 6.73 | 7.91 |  |
| NS(=O)(=O)c1cccc(C2CCn3cncc3C2)c1-c1nn[nH]n1 (stereo not drawn) [Example 178, 3-(5,6,7,8-tetrahydroimidazo[1,5-a]pyridin-7-yl)-2-(2H-tetrazol-5-yl)benzenesulfonamide] |  |  |  |  |  |  |  |  |  |  |  | pIC50 (VIM-1; [15]): 7.18; Escherichia coli expressing NDM-1 (CLB 30016) MITC95 [1]: 0.25 µM; Klebsiella pneumoniae expressing VIM-1 (IHMA 599644) MITC95 [2]: 9.375 µM; Serratia marcescens expressing IMP-1 (CL5741) MITC95 [3]: 12.5 µM; pIC50 (IMP-1; [16]): 5.99; pIC50 (NDM-1; [17]): 7.55 |
| NCC[C@H]1CC[C@H](c2ccc(C(F)(F)F)c(S(N)(=O)=O)c2-c2nnn[nH]2)CC1 [Example 499, 3-(trans 4-(2-aminoethyl)cyclohexyl)-2-(1H-tetrazol-5-yl)-6-(trifluoromethyl)benzenesulfonamide] | 0.7813 | 1.172 | 0.1953 | 8.15 | 8.71 |  |  |  |  |  |  | pIC50 (VIM-1; [18]): 9.48 |
| NC1CC(N[C@H]2CC[C@H](c3ccc(C(F)(F)F)c(S(N)(=O)=O)c3-c3nnn[nH]3)CC2)C1 (stereo partly drawn) [Example 694, 3-{4-[(3-aminocyclobutyl)amino]cyclohexyl}-2-(1H-tetrazol-5-yl)-6-(trifluoromethyl)benzene sulfonamide] | 0.3906 | 1.563 | 1.563 | 7.73 | 8.31 |  |  |  |  |  |  | pIC50 (VIM-1; [18]): 8.61 |
| Nc1ccc(CN[C@H]2CC[C@H](c3ccc(C(F)(F)F)c(S(N)(=O)=O)c3-c3nnn[nH]3)CC2)cn1 [Example 682, 3-(4-{[(6-aminopyridin-3-yl)methyl]amino}cyclohex-yl)-2-(1H-tetrazol-5-yl)-6-(trifluoromethyl)benzene sulfonamide] | 6.25 | 12.5 | 6.25 |  |  |  |  |  |  |  |  | pIC50 (VIM-1; [4]): 9.16; pIC50 (IMP-1): 7.56; pIC50 (NDM-1): 8.38 |
| NS(=O)(=O)c1nccc(N2CCCC(Cc3cccnc3)C2)c1-c1nnn[nH]1 (stereo not drawn) [Example 243, 4-[3-(pyridin-3-ylmethyl)piperidin-1-yl]-3-(1H-tetrazol-5-yl)pyridine-2-sulfonamide] |  |  |  |  |  | 6.69 | 18.75 | >200 | 100 | 5.82 | 7.17 |  |
| NS(=O)(=O)c1c(C(F)(F)F)ccc(-c2cccc3ncccc23)c1-c1nn[nH]n1 [Example 486, 3-(Quinolin-5-yl)-2-(2H-tetrazol-5-yl)-6-(trifluoromethyl)benzenesulfonamide] |  |  |  |  |  | 9.87 | 1.208 | 4.531 | 0.1367 | 8.92 | 9.72 |  |
| NS(=O)(=O)c1c(C(F)(F)F)ccc(-c2ccc(C3CCNC3)cc2)c1-c1nn[nH]n1 (stereo not drawn) [Example 443, 4′-(pyrrolidin-3-yl)-2-(2H-tetrazol-5-yl)-4-(trifluoromethyl)-[1,1′-biphenyl]-3-sulfonamide] |  |  |  |  |  | 9.30 | 0.7734 | 0.8906 | 0.09375 | 8.87 | 9.04 |  |
| NS(=O)(=O)c1cccc(-c2snc3cccnc23)c1-c1nnn[nH]1 [Example 414, 3-isothiazolo[4,3-b]pyridin-3-yl-2-(1H-tetrazol-5-yl)benzenesulfonamide] |  |  |  |  |  | 7.70 | 2.344 | 18.75 | 4.688 | 6.75 | 8.22 |  |
| NS(=O)(=O)c1nccc(N2CCC(c3ncc[nH]3)CC2)c1-c1nnn[nH]1 [Example 240, 4-[4-(1H-imidazol-2-yl)piperidin-1-yl]-3-(1H-tetrazol-5-yl)pyridine-2-sulfonamide] |  |  |  |  |  |  |  |  |  |  |  | pIC50 (VIM-1; [15]): 6.03; Escherichia coli expressing NDM-1 (CLB 30016) MITC95 [1]: 1.172 µM; Klebsiella pneumoniae expressing VIM-1 (IHMA 599644) MITC95 [2]: 25 µM; Serratia marcescens expressing IMP-1 (CL5741) MITC95 [3]: 37.5 µM; pIC50 (IMP-1; [16]): 5.47; pIC50 (NDM-1; [17]): 6.38 |
| Nc1ncc2ccc(-c3cccc(S(N)(=O)=O)c3-c3nnn[nH]3)cc2n1 [Example 420, 3-(2-Aminoquinazolin-7-yl)-2-(1H-tetrazol-5-yl)benzenesulfonamide] |  |  |  |  |  |  | 1.563 | 18.75 | 9.375 | 6.66 | 8.32 | pIC50 (VIM-1; VIM-1 IC50, VIM-1 enzyme, CCF2-FA fluorescence assay): 7.51 |
| NS(=O)(=O)c1cccc(-c2ccc(C3CCN(C[C@H]4CNCCO4)CC3)cc2)c1-c1nnn[nH]1 [Example 619] | 0.7813 | 150 | 0.9766 | 7.97 | 8.08 |  |  |  |  |  |  | pIC50 (VIM-1; [18]): 6.41 |
| NC1Cc2ccc(-c3ccc(C(F)(F)F)c(S(N)(=O)=O)c3-c3nn[nH]n3)cc2C1 (stereo not drawn) [Example 442, 3-(2-amino-2,3-dihydro-1H-inden-5-yl)-2-(2H-tetrazol-5-yl)-6-(trifluoromethyl)benzenesulfonamide] |  |  |  |  |  | 9.57 | 1.172 | 0.7813 | 0.5859 | 7.78 | 7.93 |  |
| NS(=O)(=O)c1c(CC2(F)CCNC2)ccc(-c2ccc(C3CCNCC3)cc2)c1-c1nn[nH]n1 (stereo not drawn) [Example 467, 4-((3-fluoropyrrolidin-3-yl)methyl)-4′-(piperidin-4-yl)-2-(2H-tetrazol-5-yl)-[1,1′-biphenyl]-3-sulfonamide] |  |  |  |  |  | 8.32 | 0.7813 | 1.563 | 1.563 | 7.46 | 7.99 |  |
| Nc1nc2ccc(-c3ccc(CC4CCNCC4)c(S(N)(=O)=O)c3-c3nn[nH]n3)cc2[nH]1 [Example 610, 3-(2-amino-3H-benzo[d]imidazol-5-yl)-6-(piperidin-4-ylmethyl)-2-(2H-tetrazol-5-yl)benzenesulfonamide] | 0.3906 | 1.563 | 3.125 | 6.94 | 8.53 |  |  |  |  |  |  | pIC50 (VIM-1; [4]): 8.19 |
| NS(=O)(=O)c1cccc(-c2cc(F)cc(F)c2)c1-c1nnn[nH]1 [Example 129, 3′,5′-difluoro-2-(1H-tetrazol-5-yl)-[1,1′-biphenyl]-3-sulfonamide] |  |  |  |  |  |  |  |  |  |  |  | pIC50 (VIM-1; [15]): 7.42; Escherichia coli expressing NDM-1 (CLB 30016) MITC95 [1]: 0.7813 µM; Klebsiella pneumoniae expressing VIM-1 (IHMA 599644) MITC95 [2]: 12.5 µM; Serratia marcescens expressing IMP-1 (CL5741) MITC95 [3]: 9.375 µM; pIC50 (IMP-1; [16]): 6.75; pIC50 (NDM-1; [17]): 8.43 |
| N#CCCc1ccc(-c2ccnc3ccccc23)c(-c2nn[nH]n2)c1S(N)(=O)=O [Example 453, 6-(2-cyanoethyl)-3-(quinolin-4-yl)-2-(2H-tetrazol-5-yl)benzenesulfonamide] |  |  |  |  |  | 9.18 | 4.688 | 6.25 | 12.5 | 6.96 | 8.16 |  |
| NS(=O)(=O)c1cccc(C2CCCc3ncccc32)c1-c1nn[nH]n1 (stereo not drawn) [Example 519, 3-(5,6,7,8-Tetrahydroquinolin-5-yl)-2-(2H-tetrazol-5-yl)benzenesulfonamide] | 1.563 | 37.5 | 100 | 6.12 | 8.42 |  |  |  |  |  |  | pIC50 (VIM-1; [18]): 7.61 |
